In ChEMBL document CHEMBL3091433, “Structure-based design of substituted hexafluoroisopropanol-arylsulfonamides as modulators of RORc” (Bioorg Med Chem Lett, 2013):

Legend:
[1] = target: T1, Oxysterols receptor LXR-beta (Homo sapiens, UniProt P55055)
T1 sequence (P55055 whole entry): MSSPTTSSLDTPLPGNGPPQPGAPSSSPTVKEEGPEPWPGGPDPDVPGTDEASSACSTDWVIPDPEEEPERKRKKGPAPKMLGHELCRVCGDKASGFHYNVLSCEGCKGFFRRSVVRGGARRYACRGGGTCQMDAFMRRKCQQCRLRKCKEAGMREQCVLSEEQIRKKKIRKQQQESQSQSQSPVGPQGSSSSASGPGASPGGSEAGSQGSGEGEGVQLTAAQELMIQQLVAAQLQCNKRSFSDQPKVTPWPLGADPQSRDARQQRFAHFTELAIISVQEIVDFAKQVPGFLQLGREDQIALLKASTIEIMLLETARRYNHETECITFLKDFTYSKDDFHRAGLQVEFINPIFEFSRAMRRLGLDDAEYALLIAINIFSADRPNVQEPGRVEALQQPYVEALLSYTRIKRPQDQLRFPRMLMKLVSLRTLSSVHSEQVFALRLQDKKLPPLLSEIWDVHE
Description: Agonist activity at GAL4-fused human LXRbeta expressed in HEK293T cells assessed as activation of basal transcriptional activity after 20 hrs by dual-glo luciferase reporter gene assay

[2] = target: T2, Nuclear receptor ROR-gamma (Homo sapiens, UniProt P51449)
T2 sequence (P51449 whole entry): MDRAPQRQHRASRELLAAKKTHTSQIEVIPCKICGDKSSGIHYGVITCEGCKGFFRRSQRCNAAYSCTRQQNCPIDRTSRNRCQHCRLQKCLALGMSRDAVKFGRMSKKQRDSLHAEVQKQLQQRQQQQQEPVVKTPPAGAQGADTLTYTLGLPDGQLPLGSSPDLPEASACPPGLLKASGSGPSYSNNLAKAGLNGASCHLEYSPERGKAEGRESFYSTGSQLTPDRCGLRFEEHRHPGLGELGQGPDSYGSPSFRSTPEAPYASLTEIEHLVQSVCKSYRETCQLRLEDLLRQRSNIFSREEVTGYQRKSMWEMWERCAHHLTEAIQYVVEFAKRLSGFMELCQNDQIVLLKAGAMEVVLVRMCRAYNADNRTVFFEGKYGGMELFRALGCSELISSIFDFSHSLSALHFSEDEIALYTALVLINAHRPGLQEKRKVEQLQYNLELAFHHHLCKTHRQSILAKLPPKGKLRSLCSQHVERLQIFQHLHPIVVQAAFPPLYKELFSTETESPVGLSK
Description: Inverse agonist activity at N-terminal 6xHis-tagged human RORc ligand binding domain (241 to 486) expressed in bacterial expression system assessed as inhibition of SRC1 co-activator peptide recruitment after 3 hrs by TR-FRET analysis

[3] = target: T2, Nuclear receptor ROR-gamma; remark: listed apart in the source
Description: Inverse agonist activity at GAL4-fused human RORc expressed in HEK293T cells assessed as suppression of basal transcriptional activity after 20 hrs by dual-glo luciferase reporter gene assay

Bile acid receptor = target: T3, Bile acid receptor (Homo sapiens, UniProt Q96RI1); assay: Agonist activity at GAL4-fused human FXR expressed in HEK293T cells assessed as activation of basal transcriptional activity after 20 hrs by dual-glo luciferase reporter gene assay; type: cell-based, HEK-293T
T3 sequence (Q96RI1 whole entry): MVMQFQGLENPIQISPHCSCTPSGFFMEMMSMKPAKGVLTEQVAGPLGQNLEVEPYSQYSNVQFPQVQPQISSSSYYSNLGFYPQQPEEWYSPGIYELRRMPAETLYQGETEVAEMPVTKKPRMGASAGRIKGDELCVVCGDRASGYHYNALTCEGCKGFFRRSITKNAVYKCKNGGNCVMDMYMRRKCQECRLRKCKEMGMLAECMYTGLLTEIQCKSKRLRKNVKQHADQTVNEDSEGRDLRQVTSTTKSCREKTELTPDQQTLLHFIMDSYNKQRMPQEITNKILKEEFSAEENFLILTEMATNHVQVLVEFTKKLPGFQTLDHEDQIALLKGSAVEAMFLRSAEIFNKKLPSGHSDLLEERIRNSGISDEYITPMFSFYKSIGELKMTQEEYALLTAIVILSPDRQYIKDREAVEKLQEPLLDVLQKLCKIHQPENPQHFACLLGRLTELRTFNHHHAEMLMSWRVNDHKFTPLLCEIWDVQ

[4] = target: T4, Oxysterols receptor LXR-alpha (Homo sapiens, UniProt Q13133)
T4 sequence (Q13133 whole entry): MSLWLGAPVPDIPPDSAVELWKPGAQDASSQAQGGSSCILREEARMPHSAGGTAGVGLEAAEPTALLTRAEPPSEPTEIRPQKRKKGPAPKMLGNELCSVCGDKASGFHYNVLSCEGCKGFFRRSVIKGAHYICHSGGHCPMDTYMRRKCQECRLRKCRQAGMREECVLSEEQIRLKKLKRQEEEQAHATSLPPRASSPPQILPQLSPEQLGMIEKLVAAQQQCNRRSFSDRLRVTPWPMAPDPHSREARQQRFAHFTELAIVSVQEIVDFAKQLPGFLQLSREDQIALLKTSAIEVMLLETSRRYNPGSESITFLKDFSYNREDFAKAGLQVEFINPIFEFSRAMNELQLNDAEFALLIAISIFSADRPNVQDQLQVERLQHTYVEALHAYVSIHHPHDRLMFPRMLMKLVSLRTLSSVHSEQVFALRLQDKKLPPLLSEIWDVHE
Description: Agonist activity at GAL4-fused human LXRalpha expressed in HEK293T cells assessed as activation of basal transcriptional activity after 20 hrs by dual-glo luciferase reporter gene assay

[5] = target: T5, Nuclear receptor ROR-beta (Homo sapiens, UniProt Q92753); assay: Inverse agonist activity at GAL4-fused human RORb expressed in HEK293T cells assessed as suppression of basal transcriptional activity after 20 hrs by dual-glo luciferase reporter gene assay; type: cell-based, HEK-293T
T5 sequence (Q92753 whole entry): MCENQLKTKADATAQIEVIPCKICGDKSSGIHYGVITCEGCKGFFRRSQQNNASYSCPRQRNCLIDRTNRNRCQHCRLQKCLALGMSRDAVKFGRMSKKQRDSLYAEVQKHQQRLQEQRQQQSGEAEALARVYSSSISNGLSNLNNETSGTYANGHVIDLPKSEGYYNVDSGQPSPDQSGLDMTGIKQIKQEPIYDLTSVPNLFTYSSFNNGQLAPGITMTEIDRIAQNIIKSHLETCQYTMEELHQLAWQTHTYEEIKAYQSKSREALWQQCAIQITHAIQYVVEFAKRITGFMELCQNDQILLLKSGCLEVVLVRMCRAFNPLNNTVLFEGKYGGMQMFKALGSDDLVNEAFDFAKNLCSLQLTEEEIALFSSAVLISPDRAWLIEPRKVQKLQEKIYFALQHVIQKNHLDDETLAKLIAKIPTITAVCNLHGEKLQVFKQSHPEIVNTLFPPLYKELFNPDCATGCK

SMILES | EC50 [1] [nM] | EC50 [2] [nM] | EC50 [3] [nM] | EC50 (Bile acid receptor) [nM] | EC50 [4] [nM] | EC50 [5] [nM]
N#Cc1ccc(S(=O)(=O)N(CC(F)(F)F)c2ccc(C(O)(C(F)(F)F)C(F)(F)F)cc2)cc1 | 902 | 61 | 192 | 3000 | > 10000 | 5000
CCN(c1ccc(C(O)(C(F)(F)F)C(F)(F)F)cc1)S(=O)(=O)c1ccccc1 | 246 | 190 | 593 | 9000 | 3000 | 4000
O=S(=O)(c1ccc(F)cc1)N(CC(F)(F)F)c1ccc(C(O)(C(F)(F)F)C(F)(F)F)cc1 | 385 | 19 | 89 | 1000 | 719 | 6000
